In brackets after ≈: the same amount, converted by molar mass.
System: ΔtreS (TreS-deficient M. tuberculosis)
Type: cell-based, Mycobacterium tuberculosis

Compound: COc1nc2ccc(Br)cc2cc1[C@@H](c1ccccc1)[C@@](O)(CCN(C)C)c1cccc2ccccc12 [BDQ, bedaquiline]
- IC95 ΔtreS: 0.21 µg/mL (≈ 0.378 µM)

Compound: NNC(=O)c1ccncc1 [INH, isoniazid]
- IC95 ΔtreS: 0.12 µg/mL (≈ 0.875 µM)
